# Test results taken from patent US20220411471A1, “CELL-PERMEABLE CYCLIC PEPTIDES AND USES THEREOF” (Unnatural Products Inc., priority 2019, published 2022).
# Non-standard residues stand in square brackets, D forms with d. Residues, ends and D or L forms follow the SMILES beside them. ξ: configuration not given here. NEtPhe(4-F) = CCN[C@@H](Cc1ccc(F)cc1)C(=O)O; Ala(4-thiazolyl) = N[C@@H](Cc1cscn1)C(=O)O; NMePhe(4-F) = CN[C@@H](Cc1ccc(F)cc1)C(=O)O; Phe(4-Cl) = N[C@@H](Cc1ccc(Cl)cc1)C(=O)O; Phe(4-F) = N[C@@H](Cc1ccc(F)cc1)C(=O)O; NMeThr(3ξ) = CN[C@H](C(=O)O)C(C)O; NMeF = CN[C@@H](Cc1ccccc1)C(=O)O; Tle = CC(C)(C)[C@H](N)C(=O)O; NMeV = CN[C@H](C(=O)O)C(C)C; Pip = O=C(O)[C@@H]1CCCCN1; hSer = N[C@@H](CCO)C(=O)O; NMeA = CN[C@@H](C)C(=O)O; dNMeA = CN[C@H](C)C(=O)O; Abu = CC[C@H](N)C(=O)O; Nme = COCCNCC(=O)O
# Tests used:
# Human MDM2 (HDM2) 1-116 = molecular target: T1, Human MDM2 (HDM2) 1-116 (Homo sapiens, UniProt Q00987); assay: Fluorescence polarization assay 2, MDM2 (Table 4); assay type: binding; settings: Table 4; fluorescence polarization; read-out: MDM2 IC50
# T1 construct: Human MDM2 (HDM2) 1-116
# T1 sequence (Q00987 1-116): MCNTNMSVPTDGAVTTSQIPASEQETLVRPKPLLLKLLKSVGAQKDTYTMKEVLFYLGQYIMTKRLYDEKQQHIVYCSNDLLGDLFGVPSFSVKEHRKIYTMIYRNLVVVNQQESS
# Method: (§1) Compounds dissolved in DMSO were pin transferred (˜100-200 nL) to the 384 well plate containing the MDM2/p53 solution. After incubation for 60 minutes, the fluorescence polarization was read on a Molecular Devices SpectraMax plate reader equipped with a Fluorescein FP cartridge. In addition to probe alone (positive control) and probe/MDM2 (negative control), a titration of linear p53(18-26) was included on every plate as an additional control. IC50 values were fit using either Prism or Collaborative Drug Discovery.
# Human MDM4 (HDM4) 1-114 = molecular target: T2, Human MDM4 (HDM4) 1-114 (Homo sapiens, UniProt O15151); assay: Fluorescence polarization assay 2, MDM4 (Table 4); assay type: binding; settings: Table 4; fluorescence polarization; read-out: MDM4 IC50
# T2 construct: Human MDM4 (HDM4) 1-114
# T2 sequence (O15151 1-114): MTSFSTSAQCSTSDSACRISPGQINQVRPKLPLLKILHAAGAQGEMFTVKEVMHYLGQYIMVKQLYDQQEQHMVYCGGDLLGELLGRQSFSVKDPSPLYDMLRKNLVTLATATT
# Method: as §1, with “MDM4/p53” for “MDM2/p53”, “probe/MDM4” for “probe/MDM2”
# [1] = Pharmacokinetic parameters of Compound 35, intravenous, mice; assay type: in vivo; settings: mouse, 1 mg/kg, plasma
# Method: Mice were treated intravenously with Compound 35 (1 mg/kg) and plasma was collected at various timepoints to determine pharmacokinetic parameters. The change in mean plasma concentration over time is shown in FIG. 5, and all pharmacokinetic parameters obtained are summarized in Table 2: […]
# MOLM-13 cells = assay: Cellular fluorescence assay (resazurin, 72 hours); assay type: cell-based
# Method: MOLM-13 cells were grown in suspension in T75 flasks in RPMI medium with 10% fetal bovine serum (FBS) at 37° C. with 5% CO2. 40 μL of MOLM-13 cells were plated into columns 1-22 of black, clear bottom, 384 well plates at a density of 1,500 cells per well in PRMI with 10% FBS. Columns 23 and 24 were filled with 40 μL of media as a positive control. 100 nL of compounds dissolved in DMSO were pin transferred into columns 3-22 of the 384 well plate. Columns 1 and 2 served as negative control wells. Plates were incubated for 72 hours at 37° C. with 5% CO2. After incubation, the cells were given 10 μL of 2 mM Resazurin in RPMI with 10% FBS and incubated for 3 hours. The fluorescence intensity was read on a Molecular Devices SpectraMax i3x plate reader (Excitation wavelength=535 nm, Emission wavelength=585 nm).
SMILES,IC50 (Human MDM2 (HDM2) 1-116),IC50 (Human MDM4 (HDM4) 1-114),also measured
"COCC[C@@H]1NC(=O)[C@H]2CCCN2C(=O)[C@H](Cc2ccccc2)N(C)C(=O)[C@H](Cc2ccc(Cl)cc2)NC(=O)[C@H](C(C)(C)C)NC(=O)[C@H](Cc2ccc(F)cc2)NC(=O)CN(CCOC)C(=O)[C@@H](C)N(C)C(=O)[C@H](Cc2cscn2)NC(=O)[C@H](C)N(C)C1=O [Compound 35, COCC[C@@H]1NC(=O)[C@H]2CCCN2C(=O)[C@H](CC2=CC=CC=C2)N(C)C(=O)[C@H](CC2=CC=C(Cl)C=C2)NC(=O)[C@@H](NC(=O)[C@H](CC2=CC=C(F)C=C2)NC(=O)CN(CCOC)C(=O)[C@@H](C)N(C)C(=O)[C@H](CC2=CSC=N2)NC(=O)[C@H](C)N(C)C1=O)C(C)(C)C] (cyclo([Ala(4-thiazolyl)][dNMeA][Nme][Phe(4-F)][Tle][Phe(4-Cl)][NMeF][dP][hSer](Me)[NMeA]))",50 to 100 nM,> 150 nM,AUC(0-inf) [1]: 1040 ng·h/mL; AUC(0-t) [1]: 1040 ng·h/mL; Cmax [1]: 3570 ng/mL; MRT inf [1]: 9 min; MRT last [1]: 7.8 min; Tmax [1]: 4.8 min; clearance [1]: 16 mL/min/kg; half-life [1]: 62.4 min; Vd ([1]; read-out: Vss): 0.14 L/kg
"COCC[C@@H]1NC(=O)[C@H]2CCCN2C(=O)[C@H](Cc2ccccc2)N(C)C(=O)[C@H](Cc2ccc(Cl)cc2)NC(=O)[C@H]([C@@H](C)O)NC(=O)[C@H](Cc2ccc(F)cc2)NC(=O)CN(CCOC)C(=O)[C@@H](C)N(C)C(=O)[C@H](Cc2cscn2)NC(=O)[C@H](C)N(C)C1=O [Compound 39, COCC[C@@H]1NC(=O)[C@H]2CCCN2C(=O)[C@H](CC2=CC=CC=C2)N(C)C(=O)[C@H](CC2=CC=C(Cl)C=C2)NC(=O)[C@@H](NC(=O)[C@H](CC2=CC=C(F)C=C2)NC(=O)CN(CCOC)C(=O)[C@@H](C)N(C)C(=O)[C@H](CC2=CSC=N2)NC(=O)[C@H](C)N(C)C1=O)C(C)O] (cyclo([hSer](Me)[NMeA][Ala(4-thiazolyl)][dNMeA][Nme][Phe(4-F)]T[Phe(4-Cl)][NMeF][dP]))",,,IC50 (MOLM-13 cells): 100 to 150 nM
"CC[C@@H]1NC(=O)[C@H](Cc2ccc(F)cc2)NC(=O)CN(CCOC)C(=O)[C@@H](C)N(C)C(=O)[C@H](Cc2cscn2)NC(=O)[C@H](C)N(C)C(=O)[C@H](CCOC)NC(=O)[C@H]2CCCN2C(=O)[C@H](Cc2ccccc2)N(C)C(=O)[C@H](Cc2ccc(Cl)cc2)NC1=O [Compound 42, CC[C@@H]1NC(=O)[C@H](CC2=CC=C(F)C=C2)NC(=O)CN(CCOC)C(=O)[C@@H](C)N(C)C(=O)[C@H](CC2=CSC=N2)NC(=O)[C@H](C)N(C)C(=O)[C@H](CCOC)NC(=O)[C@H]2CCCN2C(=O)[C@H](CC2=CC=CC=C2)N(C)C(=O)[C@H](CC2=CC=C(Cl)C=C2)NC1=O] (cyclo([Abu][Phe(4-Cl)][NMeF][dP][hSer](Me)[NMeA][Ala(4-thiazolyl)][dNMeA][Nme][Phe(4-F)]))",25 to 50 nM,100 to 150 nM,
"COCC[C@@H]1NC(=O)[C@H]2CCCN2C(=O)[C@H](Cc2ccccc2)N(C)C(=O)[C@H](Cc2ccc(Cl)cc2)NC(=O)[C@H](C(C)C)N(C)C(=O)[C@H](Cc2ccc(F)cc2)NC(=O)CN(CCOC)C(=O)[C@@H](C)N(C)C(=O)[C@H](Cc2cscn2)NC(=O)[C@H](C)N(C)C1=O [Compound 43, COCC[C@@H]1NC(=O)[C@H]2CCCN2C(=O)[C@H](CC2=CC=CC=C2)N(C)C(=O)[C@H](CC2=CC=C(Cl)C=C2)NC(=O)[C@H](C(C)C)N(C)C(=O)[C@H](CC2=CC=C(F)C=C2)NC(=O)CN(CCOC)C(=O)[C@@H](C)N(C)C(=O)[C@H](CC2=CSC=N2)NC(=O)[C@H](C)N(C)C1=O] (cyclo([Ala(4-thiazolyl)][dNMeA][Nme][Phe(4-F)][NMeV][Phe(4-Cl)][NMeF][dP][hSer](Me)[NMeA]))",25 to 50 nM,100 to 150 nM,
"CCN1C(=O)[C@H](Cc2ccc(Cl)cc2)NC(=O)[C@H](C(C)(C)C)NC(=O)[C@H](Cc2ccc(F)cc2)NC(=O)CN(CCOC)C(=O)[C@@H](C)N(C)C(=O)[C@H](Cc2cscn2)NC(=O)[C@H](C)N(C)C(=O)[C@H](CCOC)NC(=O)[C@H]2CCCN2C(=O)[C@@H]1Cc1ccc(F)cc1 [Compound 44, CCN1[C@@H](Cc2ccc(F)cc2)C(=O)N2CCC[C@@H]2C(=O)N[C@@H](CCOC)C(=O)N(C)[C@@H](C)C(=O)N[C@@H](Cc2cscn2)C(=O)N(C)[C@H](C)C(=O)N(CCOC)CC(=O)N[C@@H](Cc2ccc(F)cc2)C(=O)N[C@H](C(=O)N[C@@H](Cc2ccc(Cl)cc2)C1=O)C(C)(C)C] (cyclo([Ala(4-thiazolyl)][dNMeA][Nme][Phe(4-F)][Tle][Phe(4-Cl)][NEtPhe(4-F)][dP][hSer](Me)[NMeA]))",50 to 100 nM,> 150 nM,
"COCC[C@@H]1NC(=O)[C@H]2CCCN2C(=O)[C@H](Cc2ccc(F)cc2)N(C)C(=O)[C@H](Cc2ccc(Cl)cc2)NC(=O)[C@H](C(C)O)N(C)C(=O)[C@H](Cc2ccc(F)cc2)NC(=O)CN(CCOC)C(=O)[C@@H](C)N(C)C(=O)[C@H](Cc2cscn2)NC(=O)[C@H](C)N(C)C1=O (some centres unmarked) [Compound 45, COCC[C@@H]1NC(=O)[C@H]2CCCN2C(=O)[C@H](Cc2ccc(F)cc2)N(C)C(=O)[C@H](Cc2ccc(Cl)cc2)NC(=O)[C@H]([C@@@H](C)O)N(C)C(=O)[C@H](Cc2ccc(F)cc2)NC(=O)CN(CCOC)C(=O)[C@@H](C)N(C)C(=O)[C@H](Cc2cscn2)NC(=O)[C@H](C)N(C)C1=O] (cyclo([Ala(4-thiazolyl)][dNMeA][Nme][Phe(4-F)][NMeThr(3ξ)][Phe(4-Cl)][NMePhe(4-F)][dP][hSer](Me)[NMeA]))",,,IC50 (MOLM-13 cells): 50 to 100 nM
"COCC[C@@H]1NC(=O)[C@H]2CCCN2C(=O)[C@H](Cc2ccc(F)cc2)N(C)C(=O)[C@H](Cc2ccc(Cl)cc2)NC(=O)[C@@H]2CCCCN2C(=O)[C@H](Cc2ccc(F)cc2)NC(=O)CN(CCOC)C(=O)[C@@H](C)N(C)C(=O)[C@H](Cc2cscn2)NC(=O)[C@H](C)N(C)C1=O [Compound 46, COCC[C@@H]1NC(=O)[C@H]2CCCN2C(=O)[C@H](Cc2ccc(F)cc2)N(C)C(=O)[C@H](Cc2ccc(Cl)cc2)NC(=O)[C@@H]2CCCCN2C(=O)[C@H](Cc2ccc(F)cc2)NC(=O)CN(CCOC)C(=O)[C@@H](C)N(C)C(=O)[C@H](Cc2cscn2)NC(=O)[C@H](C)N(C)C1=O] (cyclo([Ala(4-thiazolyl)][dNMeA][Nme][Phe(4-F)][Pip][Phe(4-Cl)][NMePhe(4-F)][dP][hSer](Me)[NMeA]))",50 to 100 nM,100 to 150 nM,
"COCC[C@@H]1NC(=O)[C@H]2CCCN2C(=O)[C@H](Cc2ccc(F)cc2)N(C)C(=O)[C@H](Cc2ccc(Cl)cc2)NC(=O)[C@@H]2CCCN2C(=O)[C@H](Cc2ccc(F)cc2)NC(=O)CN(CCOC)C(=O)[C@@H](C)N(C)C(=O)[C@H](Cc2cscn2)NC(=O)[C@H](C)N(C)C1=O [Compound 47, COCC[C@@H]1NC([C@H]2CCCN2C([C@@H](N(C([C@@H](NC([C@@H]3CCCN3C([C@@H](NC(CN(C([C@H](N(C([C@@H](NC([C@@H](N(C1=O)C)C)=O)Cc4ncsc4)=O)C)C)=O)CCOC)=O)Cc5ccc(F)cc5)=O)=O)Cc6ccc(Cl)cc6)=O)C)Cc7ccc(F)cc7)=O)=O] (cyclo([Ala(4-thiazolyl)][dNMeA][Nme][Phe(4-F)]P[Phe(4-Cl)][NMePhe(4-F)][dP][hSer](Me)[NMeA]))",25 to 50 nM,100 to 150 nM,
